These results are taken from patent US20220168304A1, “METHODS FOR TREATING CYSTIC FIBROSIS” (CHILDREN'S HOSPITAL MEDICAL CENTER, priority 2017, published 2022).

The structures appear in SMILES notation.

Experiment [1] has as its system human duodenal organoids. As to the kind of experiment: Fluid secretion by forskolin-induced swelling (FIS) of human duodenal organoids. Format: cell-based. To be noted: FIG. 3; 0.1 micromolar saracatinib; forskolin 10 μM, 120 min; FSK vs no FSK significant, p value of 0.01. On the procedure:
(§1) Mouse intestinal organoids were cultured as described previously (DALTON et al., “New model of cystic fibrosis transmembrane conductance regulator proposes active channel-lik ? Inf Model (2012) Vol. 52, pp. 1842-1853). Human duodenal crypt isolation and enteroid expansion was performed as described previously (<<https://www.jove.com/video/52483/establishment-human-epithelial-enteroids-colonoids-from-whole-tissue>>) with some adaptations. Briefly, fresh biopsy is rinsed in ice-cold Dulbecco's Phosphate buffered saline without Ca^2+ and Mg^2+ (DPBS, Gibco), mounted and immersed in DPBS in a silica gel coated petri-dish using minutien pins with the mucosal side facing up.
Mucosa is gently scraped with curved forceps to remove villi and debris followed by 3-4 washes with DPBS. Crypts were dissociated using 2 mM EDTA (30 min, 4° C. with gentle shaking) followed by gentle scraping of the mucosa. The crypt suspension was filtered through a 150 μm nylon mesh twice and pelleted at 50×g, 4° C. The crypt pellet was resuspended in matrigel matrix (200 to 500 crypts/50 μl matrigel per well of a 24 well plate). […]
Fluid Secretion by forskolin-induced swelling (FIS) of human duodenal organoids (A) representative images (bar=20 micrometers) and (B) quantitation of fluid secretion.

The subject of experiment [2] is mouse intestinal organoids. As to the kind of experiment: Fluid secretion by forskolin-induced swelling (FIS) of mouse intestinal organoids. To be noted: FIG. 4; 0.1 micromolar saracatinib; forskolin 10 μM, 30 min; FSK vs no FSK significant, p value of 0.01. It is filed as cell-based. On the procedure:
as §1
Isolation of intestinal spheres and measurement of fluid secretion were performed as described previously (MOON et al., “Compartmentalized accumulation of cAMP near complexes of multidrug resistance protein 4 (MRP4) and cystic fibrosis transmembrane conductance regulator (CFTR) contributes to drug-induced diarrhea.” J Biol Chem (2015) Vol. 290, pp. 11246-11257). Day 1-4 intestinal organoids were treated with 0.1-10 μM of the test compound for 24 h before stimulation of CFTR function using forskolin (10 μM). […]
Fluid Secretion by forskolin-induced swelling (FIS) of mouse intestinal organoids (A) representative images (bar=20 micrometers) and (B) quantitation of fluid secretion.

For `CN1CCN(CCOc2cc(OC3CCOCC3)c3c(Nc4c(Cl)ccc5c4OCO5)ncnc3c2)CC1` [saracatinib, N-(5-chloro-1,3-benzodioxol-4-yl)-7-[2-(4-methyl-1-piperazinyl)ethoxy]-5-[(tetrahydro-2H-pyran-4-yl)oxy]-4-quinazolinamine], the “Fluid secretion (forskolin-induced swelling, FIS)” value in experiment [1] and in experiment [2] was “fluid secretion occurs when saracatinib is added” in each case.
